“Also recorded” adds a separate entry of the source. Like-named read-outs stand apart in the source and are kept apart here.
Key:
Z. mobilis = assay: Bioscreen growth of Z. mobilis with pretreatment inhibitors (strain not specified); type: cell-based, Zymomonas mobilis; details: for Relative inhibitory effect on Z. mobilis among vanillin, furfural and HMF: Table 4 conditions; for Time to complete active growth and reach the stationary phase: in the presence of the inhibitor, 11 h without any inhibitor (FIGS. 5A-5D)
Description: FIGS. 5A-5E. Z. mobilis Hfq conferred tolerance to different classes of pretreatment inhibitors. Z. mobilis strains were grown in RM (pH 5.0) overnight, 5-μL culture were then transferred into 250-μL RM media in the Bioscreen plate. The growth differences of different strains were monitored by Bioscreen (Growth Curves USA, NJ) under anaerobic conditions in RM, pH 5.0 (A), RM with 1 g/L vanillin, pH 5.0 (B), 1 g/L furfural, pH 5.0 (C), 1 g/L HMF, pH 5.0 (D) and 0.001% H2O2 (E). Strains included in this study are: ZM4: Zymomonas mobilis ZM4 wild-type; AcR: ZM4 acetate tolerant mutant; AcRIM0347: AcR insertional mutant of ZMO0347; AcRIM0347 (p42-0347): AcRIM0347 containing gateway plasmid p42-0347 over-expressing ZM4 gene ZMO0347. This experiment has been repeated at least three times with similar result for hydrogen peroxide growth and in duplicate for the vanillin growth.
(§1) American Type Culture Collection (ATCC31821) and the Z. mobilis acetate tolerant strain AcR has been described previously (Joachimsthal et al. 2000). ZM4 and AcR were cultured in RM medium at 30° C. S. cerevisiae wild-type, deletion mutant and GST-fusion ORF over-expression strains were obtained through Open Biosystems (Huntsville, Ala.). S. cerevisiae strains were cultured in rich YPD media. CM media with 2% glucose was used for S. cerevisiae wild-type and S. cerevisiae deletion mutants, CM media with 2% glucose minus uracil was used for S. cerevisiae GST-over expressing strains, 2% galactose was used to induce the GST-fusion strains. Plasmid-containing strains were routinely grown with antibiotics at the following concentrations (μg/mL): kanamycin of 50 for E. coli and 200 for ZM4; tetracycline, 10 for E. coli and 20 for ZM4; and gentamicin, 10 for E. coli. G418 of 200 for S. cerevisiae YKO deletion mutants. Growth was monitored turbidometrically by measuring optical density at 600nm periodically with the Bioscreen C automated microbiology growth curve analysis system (Growth Curve USA, Piscataway, N.J.).

[1] = tested on: Zymomonas mobilis ZM4 wild-type; assay: Bioscreen growth of Z. mobilis ZM4 wild-type in RM with inhibitors; type: cell-based; details: for Final Cell Density / Growth rate: ZM4
Description: (§2) FIGS. 3A-3C. […] Z. mobilis strains were grown in RM (pH5.0) overnight, 20-μL culture were then transferred into 250-μL, RM media in the Bioscreen plate. […] Strains included in this study are: ZM4: Zymomonas mobilis ZM4 wild-type; AcR: ZM4 acetate tolerant mutant (Joachimstahl 1998); ZM4 (p42-0347): ZM4 containing a gateway plasmid p42-0347 over-expressing ZM4 gene ZMO0347; AcRIM0347: AcR insertional mutant of ZMO0347; AcRIM0347 (p42-0347): AcRIM0347 containing gateway plasmid p42-0347 over-expressing ZM4 gene ZMO0347. […] Triplicates were used for each condition.
(§3) FIGS. 4A-4E. […] Z. mobilis strains were grown in RM (pH5.0) overnight, 5-μL culture were then transferred into 250-μL RM media in the Bioscreen plate. […] Strains included in this study are: ZM4: Zymomonas mobilis ZM4 wild-type; AcR: ZM4 acetate tolerant mutant; ZM4 (p42-0347): ZM4 containing a gateway plasmid p42-0347 to express ZM4 gene ZMO0347; AcRIM0347: AcR insertional mutant of ZMO0347; AcRIM0347 (p42-0347): AcRIM0347 containing gateway plasmid p42-0347. […] Duplicate biological replicates were used for each condition.
(§4) FIGS. 5A-5E. […] Z. mobilis strains were grown in RM (pH 5.0) overnight, 5-μL culture were then transferred into 250-μL RM media in the Bioscreen plate. […] Strains included in this study are: ZM4: Zymomonas mobilis ZM4 wild-type; AcR: ZM4 acetate tolerant mutant; AcRIM0347: AcR insertional mutant of ZMO0347; AcRIM0347 (p42-0347): AcRIM0347 containing gateway plasmid p42-0347 over-expressing ZM4 gene ZMO0347.
as §1

AcRIM0347 (p42-0347) = type: cell-based, Zymomonas mobilis; details: for Lag phase of AcRIM0347 (p42-0347) versus AcRIM0347 grown with inhibitor: Table 4, FIGS. 5A-5D
Description: as §2, §3, §4, §1

[2] = tested on: AcR: ZM4 acetate tolerant mutant; type: cell-based, Zymomonas mobilis; details: AcR
Description: as §2, §3, §4, §1

[3] = tested on: AcRIM0347: AcR insertional mutant of ZMO0347; type: cell-based, Zymomonas mobilis; details: for Final Cell Density / Growth rate: AcRIM0347
Description: as §2, §3, §4, §1

[4] = tested on: S. cerevisiae Lsm protein over-expressing strains; assay: Bioscreen growth of S. cerevisiae Lsm protein over-expressing (GST) strains with inhibitors; type: cell-based
Description: (§5) FIGS. 6A-6B. […] S. cerevisiae strains were grown in CM with 2% glucose for wild-type BY4741 and the deletion mutants, CM with 2% glucose minus uracil for GST over-expression strains. Five-μL culture was then transferred into 300-μL CM broth in the Bioscreen plate.
(§6) FIGS. 7A-7P. […] S. cerevisiae strains were grown in CM with 2% glucose (CM+glucose) for wild-type BY4741 and the deletion mutants, CM with 2% glucose and 2% galactose minus uracil (CM+glucose+2% galactose) for GST overexpression strains. A 5-μL culture was then transferred into 250-μL CM broth in the Bioscreen plate.
as §1

ZM4 (p42-0347) = assay: Bioscreen growth of ZM4 (p42-0347) in RM with sodium and acetate ions; type: cell-based, Zymomonas mobilis; details: for Final Cell Density / Growth rate: ZM4 (p42-0347), RM pH 5.0 supplemented with 195 mM of the chemical, anaerobic
Description: as §2, §3, §1

AcR mutant = details: cited from earlier work
[5] = tested on: S. cerevisiae Lsm deletion mutants; type: cell-based; details: sodium acetate 40 g/L; Lsm1, 6, 7, 9, 12, 13, 16 deletions
Description: as §5, §6
American Type Culture Collection (ATCC31821) and the Z. mobilis acetate tolerant strain AcR has been described previously (Joachimsthal et al. 2000). ZM4 and AcR were cultured in RM medium at 30° C. S. cerevisiae wild-type, deletion mutant and GST-fusion ORF over-expression strains were obtained through Open Biosystems (Huntsville, Ala.). S. cerevisiae strains were cultured in rich YPD media. […] Growth was monitored turbidometrically by measuring optical density at 600nm periodically with the Bioscreen C automated microbiology growth curve analysis system (Growth Curve USA, Piscataway, N.J.).

ZM4 = details: ethanol production; cited from earlier work
Zymomonas mobilis = details: cited from earlier work
[6] = RM with HMF 0.75 g/L, furfural or vanillin 1 g/L
[7] = AcRIM0347(p42-0347), RM with HMF 0.75 g/L, furfural or vanillin 1 g/L
[8] = 16 g/L (195 mM) sodium acetate in RM
[9] = AcRIM0347 (p42-0347), RM pH 5.0 supplemented with 195 mM of the chemical, anaerobic
[10] = RM pH 5.0 supplemented with 195 mM of the chemical, anaerobic
[11] = RM pH 5.0 supplemented with 195 mM of the chemical, anaerobic, NA = lack of growth

Row | SMILES | Relative inhibitory effect on Z. mobilis among vanillin, furfural and HMF (Z. mobilis) | Time to complete active growth and reach the stationary phase (Z. mobilis) | Final Cell Density [1, 6] [OD600 nm] | Growth rate [1, 6] [h⁻¹] | Final Cell Density (AcRIM0347 (p42-0347); [7]) [OD600 nm] | Growth rate (AcRIM0347 (p42-0347); [7]) [h⁻¹] | Lag phase of AcRIM0347 (p42-0347) versus AcRIM0347 grown with inhibitor (AcRIM0347 (p42-0347)) | Final Cell Density [2, 6] [OD600 nm] | Growth rate [2, 6] [h⁻¹] | Final Cell Density [3, 6] [OD600 nm] | Growth rate [3, 6] [h⁻¹] | Final Cell Density (ZM4 (p42-0347)) [OD600 nm] | Growth rate (ZM4 (p42-0347)) [h⁻¹] | Final Cell Density (AcRIM0347 (p42-0347); [9]) [OD600 nm] | Growth rate (AcRIM0347 (p42-0347); [9]) [h⁻¹] | Final Cell Density [2, 10] [OD600 nm] | Growth rate [2, 10] [h⁻¹] | further results
1 | O=Cc1ccc(CO)o1 [HMF, hydroxymethyl furfural] | least effect | about 16 h | 0.93 ± 0.003 | 0.36 ± 0.02 | 0.78 ± 0.02 | 0.22 ± 0.001 | shorter lag phases | 0.96 ± 0.006 | 0.35 ± 0.01 | 0.67 ± 0.03 | 0.19 ± 0.02 |  |  |  |  |  |  | Growth of Lsm overexpression strains with inhibitor ([4]; 1.5 g/L): slight growth advantage
2 | CC(=O)[O-].[Na+] [NaAc, sodium acetate] |  |  |  |  |  |  |  |  |  |  |  | 0.59 ± 0.002 | 0.27 ± 0.004 | 0.45 ± 0.002 | 0.16 ± 0.002 | 0.63 ± 0.02 | 0.29 ± 0.04 | Growth of ZM4 (p42-0347) in the presence of sodium acetate (ZM4 (p42-0347); [8]): able to grow; Sodium acetate concentration at which AcR was capable of efficient ethanol production (AcR mutant): 20 g/L; Relative inhibitory effect on wild-type Z. mobilis growth among sodium and acetate salts ([1]; 195 mM in RM): most significant inhibitory effect; Growth of wild-type ZM4 in the presence of sodium acetate [1, 8]: unable to grow; also recorded: completely inhibited; Growth of Lsm deletion mutants in the presence of sodium acetate [5]: negative effects on the growth; Reduction of growth rate and final cell density of AcRIM0347 compared to parental strain AcR ([3]; 195 mM in RM): about 60%; Final Cell Density [3, 11]: 0.25 ± 0.001 OD600 nm; Growth rate [3, 11]: 0.12 ± 0.004 h⁻¹; Sodium acetate concentration above which parent ZM4 was inhibited significantly (ZM4): above 12 g/L; Growth of Lsm protein over-expressing strains in the presence of sodium acetate ([4]; sodium acetate 40 g/L, Lsm1, 6, 9, 12, 13, 16): enhanced growth
3 | CCO [ethanol] |  |  |  |  |  |  |  |  |  |  |  |  |  |  |  |  |  | Ethanol tolerance (Zymomonas mobilis): 12%
4 | CC(=O)O.N [NH4OAc, ammonium acetate] |  |  |  |  |  |  |  |  |  |  |  | 0.37 ± 0.008 | 0.19 ± 0.007 | 0.32 ± 0.007 | 0.22 ± 0.002 | 0.42 ± 0.006 | 0.19 ± 0.005 | Final Cell Density [1, 11]: 0.43 ± 0.01 OD600 nm; Growth rate [1, 11]: 0.20 ± 0.008 h⁻¹; Growth of hfq mutant AcRIM0347 in the presence of acetate salt ([3]; 195 mM in RM): unable to grow
5 | COc1cc(C=O)ccc1O [Vanillin, vanillin] | most significant inhibitory effect | ~21 h | 0.69 ± 0.006 | 0.26 ± 0.001 | 0.70 ± 0.01 | 0.20 ± 0.003 | shorter lag phases | 0.71 ± 0.01 | 0.26 ± 0.01 | 0.66 ± 0.01 | 0.20 ± 0.006 |  |  |  |  |  |  | Growth of Lsm overexpression strains with inhibitor ([4]; 0.75 g/L): detrimental effect on growth
